Measurements: PubChem BioAssay (NCI)
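Five concentrations, 48 hours, 96-well plates. TGI denotes the concentration required for complete inhibition of growth.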

How the values were obtained:
Assay in all cases: NCI anticancer screen, dose series, 48 h
SNB-19 CNS = test system: SNB-19 CNS
SK-MEL-5 melanoma = test system: SK-MEL-5 melanoma
OVCAR-8 ovarian = test system: OVCAR-8 ovarian
K-562 leukemia = test system: K-562 leukemia
UACC-257 melanoma = test system: UACC-257 melanoma
NCI-H522 lung = test system: NCI-H522 lung
BT-549 breast = test system: BT-549 breast
MDA-N = test system: MDA-N
ACHN renal = test system: ACHN renal
SF-295 CNS = test system: SF-295 CNS
RXF 393 renal = test system: RXF 393 renal
NCI-H23 lung = test system: NCI-H23 lung
SK-MEL-28 melanoma = test system: SK-MEL-28 melanoma
IGROV1 ovarian = test system: IGROV1 ovarian
OVCAR-4 ovarian = test system: OVCAR-4 ovarian
SW-620 colon = test system: SW-620 colon
HL-60(TB) leukemia = test system: HL-60(TB) leukemia
TK-10 renal = test system: TK-10 renal
COLO 205 colon = test system: COLO 205 colon
SK-OV-3 ovarian = test system: SK-OV-3 ovarian
HS 578T breast = test system: HS 578T breast
T-47D breast = test system: T-47D breast
LOX IMVI melanoma = test system: LOX IMVI melanoma
HOP-92 NSCLC = test system: HOP-92 NSCLC
MOLT-4 leukemia = test system: MOLT-4 leukemia
MDA-MB-435 = test system: MDA-MB-435
A549 NSCLC = test system: A549 NSCLC
M14 melanoma = test system: M14 melanoma
SR leukemia = test system: SR leukemia
HCT-116 colon = test system: HCT-116 colon
HOP-62 NSCLC = test system: HOP-62 NSCLC
SF-268 CNS = test system: SF-268 CNS
MCF7 breast = test system: MCF7 breast
RPMI-8226 leukemia = test system: RPMI-8226 leukemia
SF-539 CNS = test system: SF-539 CNS
EKVX NSCLC = test system: EKVX NSCLC
U251 CNS = test system: U251 CNS
NCI/ADR-RES ovarian = test system: NCI/ADR-RES ovarian
MDA-MB-231 breast = test system: MDA-MB-231 breast
NCI-H226 lung = test system: NCI-H226 lung
UO-31 renal = test system: UO-31 renal
KM12 colon = test system: KM12 colon
HCT-15 colon = test system: HCT-15 colon
A498 renal = test system: A498 renal
HCC-2998 colon = test system: HCC-2998 colon
MALME-3M melanoma = test system: MALME-3M melanoma
CCRF-CEM leukemia = test system: CCRF-CEM leukemia
UACC-62 melanoma = test system: UACC-62 melanoma
PC-3 prostate = test system: PC-3 prostate
SNB-75 CNS = test system: SNB-75 CNS
HT29 colon = test system: HT29 colon
OVCAR-5 ovarian = test system: OVCAR-5 ovarian
SK-MEL-2 melanoma = test system: SK-MEL-2 melanoma
OVCAR-3 ovarian = test system: OVCAR-3 ovarian
786-0 renal = test system: 786-0 renal
NCI-H460 lung = test system: NCI-H460 lung
SN12C renal = test system: SN12C renal
DU-145 prostate = test system: DU-145 prostate
CAKI-1 renal = test system: CAKI-1 renal

Measured: TGI

CN(NC(=O)c1cccs1)C1=NCCCN1
not listed: SN12C renal | DU-145 prostate | CAKI-1 renal
> 100 µM: all other assays above

NCCN=C(Nc1ccccc1)Nc1ccccc1
not listed: ACHN renal | T-47D breast | HOP-92 NSCLC | A498 renal | OVCAR-5 ovarian
> 100 µM: all other assays above

CC1CCOc2ccc(cc2)C=Nc2ccc(cc2)CCc2ccc(cc2)N=Cc2ccc(cc2)OCC1 (configuration not stated)
77.3 µM: SNB-75 CNS
not listed: HL-60(TB) leukemia | TK-10 renal | SK-OV-3 ovarian | T-47D breast
> 100 µM: all other assays above

Cc1cn(C(Cc2ccccc2)OCCO)c(=O)[nH]c1=O (configuration not stated)
not listed: NCI-H522 lung | HL-60(TB) leukemia | TK-10 renal | SK-OV-3 ovarian | HS 578T breast | SF-268 CNS | MALME-3M melanoma
> 100 µM: all other assays above
